Measurements: publication PMC7445162, “De novo design of an intercellular signaling toolbox for multi-channel cell–cell communication and biological computation” (Nature Communications, 2020)
Where two headings read alike, the source gives them in different places. One block for each compound: values may come before it.

Key:
FdeR [1] = target: T1, FdeR (Herbaspirillum seropedicae, UniProt D8J0W4); assay: GFP reporter dose-response in E. coli, flow cytometry; assay type: cell-based, Escherichia coli
T1 construct: gene nodD; expressed in E. coli DH5alpha receiver cells; GFP reporter under the cognate promoter
T1 sequence (D8J0W4 1-309): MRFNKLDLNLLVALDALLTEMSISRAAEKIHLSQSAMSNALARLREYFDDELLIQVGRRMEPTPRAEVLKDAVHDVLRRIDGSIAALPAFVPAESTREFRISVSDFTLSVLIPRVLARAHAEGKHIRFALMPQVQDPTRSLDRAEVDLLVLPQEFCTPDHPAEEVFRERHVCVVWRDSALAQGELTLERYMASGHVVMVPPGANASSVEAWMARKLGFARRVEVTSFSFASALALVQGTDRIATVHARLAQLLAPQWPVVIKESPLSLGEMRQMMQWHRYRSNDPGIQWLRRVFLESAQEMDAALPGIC

FdeR [2] = target: T1, FdeR; assay: cell-based; set-up: species or system Escherichia coli DH5alpha; E. coli receiver cells, GFP reporter under aTF-responsive promoter, flow cytometry, dose-response with pure synthetic signal molecules; details: synthetic pure signal, replicate
Description: (§1) IV-HSL was chemically synthesized (Supplementary Fig. 21).

PhlF = target: T2, PhlF (Pseudomonas protegens, UniProt Q4K422); assay: cell-based; set-up: species or system Escherichia coli DH5alpha; E. coli receiver cells, GFP reporter under aTF-responsive promoter, flow cytometry, dose-response with pure synthetic signal molecules; details: synthetic pure signal, replicate
T2 construct: expressed in E. coli DH5alpha receiver cells; PphlF-sfGFP reporter
T2 sequence (Q4K422 1-200): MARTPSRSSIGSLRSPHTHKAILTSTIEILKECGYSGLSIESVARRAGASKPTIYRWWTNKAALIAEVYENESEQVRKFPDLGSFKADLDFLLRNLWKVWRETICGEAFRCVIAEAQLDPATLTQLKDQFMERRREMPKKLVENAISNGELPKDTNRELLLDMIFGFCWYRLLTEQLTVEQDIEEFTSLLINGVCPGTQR
Description: as §1

LuxR [3] = target: T3, LuxR (Aliivibrio fischeri, UniProt P12746); assay: GFP reporter dose-response in E. coli, flow cytometry; assay type: cell-based, Escherichia coli; details: chemically pure signal molecule; M9 medium, 37 °C, 12 h; transcriptional reporter
T3 construct: expressed in E. coli DH5alpha receiver cells; GFP reporter under the Plux* promoter
T3 sequence (P12746 1-250): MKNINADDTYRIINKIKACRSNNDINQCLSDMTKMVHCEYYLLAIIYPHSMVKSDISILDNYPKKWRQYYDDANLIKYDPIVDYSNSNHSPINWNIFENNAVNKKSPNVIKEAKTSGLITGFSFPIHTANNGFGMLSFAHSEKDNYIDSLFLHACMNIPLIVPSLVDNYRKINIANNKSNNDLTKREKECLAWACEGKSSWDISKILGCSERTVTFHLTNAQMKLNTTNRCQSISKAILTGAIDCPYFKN

LuxR [4] = target: T3, LuxR; assay: cell-based; set-up: species or system Escherichia coli DH5alpha; E. coli receiver cells, GFP reporter under aTF-responsive promoter, flow cytometry, dose-response with pure synthetic signal molecules; details: synthetic pure signal, replicate
Description: as §1

EC50 (FdeR [1]): 51 µM | EC50 (FdeR [2]; Synthetic [column B]): 12.1 µM | EC50 (FdeR [2]; Synthetic [column C]): 93.8 µM | EC50 (FdeR [2]; Synthetic [column D]): 47.3 µM
Compound: O=C1C[C@@H](c2ccc(O)cc2)Oc2cc(O)cc(O)c21 [NG, naringenin]

EC50 (PhlF; Synthetic [column B]): 18.2 µM | EC50 (PhlF; Synthetic [column C]): 17.7 µM | EC50 (PhlF; Synthetic [column D]): 16.3 µM
Compound: CC(=O)c1c(O)cc(O)c(C(C)=O)c1O [DAPG, 2,4-diacetylphloroglucinol]

Compound: CCCC(=O)CC(=O)N[C@H]1CCOC1=O [3OC6, 3-oxo-C6-HSL]
EC50 (LuxR [3]): 0.02 µM | EC50 (LuxR [4]; Synthetic [column B]): 0.0108 µM | EC50 (LuxR [4]; Synthetic [column C]): 0.0329 µM | EC50 (LuxR [4]; Synthetic [column D]): 0.0148 µM
